Experiment [1] concerns the target T1, EP2-Subtyp des humanen PGE2-Rezeptors (Homo sapiens, UniProt P43116).
T1 construct: host or cells: cells in a culture plate
As to the kind of experiment: cAMP antagonism test (HTRF cAMP, in presence of PGE2). It is filed as cell-based. Conditions: cAMP Antagonismustest, PGE2 as agonist; read-out: Antagonismus [IC50. From the text: Die Bindung von PGE2 an den EP2-Subtyp des humanen PGE2-Rezeptors induziert die Aktivierung membranständiger Adenylatzyklasen und führt zur Bildung von cAMP. In Gegenwart des Phosphodiesteraseinhibitors IBMX wird das durch diese Stimulation akkumulierte und mittels Zell-Lyse freigesetzte cAMP in einem kompetitiven Nachweisverfahren eingesetzt. In diesem Test konkurriert das cAMP im Lysat mit cAMP-XL665 um die Bindung eines Eu-Kryptat markierten Anti-cAMP Antikörpers.
Dabei entsteht in Abwesenheit von zellulärem cAMP ein maximales Signal, welches auf der Kopplung dieses Antikörpers an das cAMP-XL665 Molekül beruht. Dadurch entsteht nach Anregung bei 337 nm ein auf FRET (fluorescence resonance energy transfer) basierendes, lang anhaltendes Emissionssignal bei 665 nm (und bei […]). Beide Signale werden in einem geeigneten Messgerät zeitlich versetzt, d.h. nach Abklingen der Hintergrundsfluoreszenz gemessen. Jegliche Erhöhung des durch Prostglandin-E2-Gabe bedingten niedrigen FRET-Signals (gemessen als Well-Ratio-Veränderung = Emission665nm/Emission620nm * 10000) zeigt die Wirkung von Antagonisten.
Die in einer Testplatte und 30 % DMSO vorgelegten Substanzlösungen (0.75 µl) werden in 16 µl einer KRSB+IBMX-Stimulationslösung gelöst (1 X Krebs-Ringer Bicarbonate Buffer; Sigma-Aldrich # K-4002; inklusive 750 µM 3-Isobutyl-1-methylxanthine Sigma-Aldrich # 1-7018), anschließend werden 15 µl davon in eine medienfreie Zellkulturplatte überführt, die kurz zuvor mit KRSB gewaschen worden war.
Nach einer 30-minütigen Vorinkubation bei Raumtemperatur (RT) werden 5 µl einer 4xPGE2 Lösung (11 nM) zugegeben und in Gegenwart des Agonisten für weitere 60 min bei RT inkubiert (Volumen: ~ 20 µl), bevor die Reaktion anschlieβend durch Zugabe von 5 µl Lysispuffer gestoppt und für weitere 20 min bei RT inkubiert wird (Volumen: ~ 25 µl). Das Zell-Lysat wird anschließend in eine Messplatte überführt und entsprechend den Herstellerangaben (cyclic AMP kit Cisbio International # 62AMPPEC) gemessen.
(In general: Time-resolved FRET reads energy transfer from a long-lived donor to a nearby acceptor.)

In a further experiment the test system is Kumulus-Eizell Komplexe. Description: cumulus expansion test in vitro. The conditions noted are these: competing with PGE2. It is filed as cell-based, Mäusen. From the text:
In immaturen weiblichen Mäusen (Stamm : CD1 (ICR) von Charles River) wird in einem Alter von 14 - 18 Tagen die Follikulogenese durch eine einmalige Gabe (intraperitoneal) von 10 I.E. PMSG (Pregnant Mare Serum Gonadotropine; Sigma G-4877, Lot 68H0909) induziert. 47 - 50 Stunden nach der Injektion werden die Ovarien entnommen und die Kumulus-Eizell Komplexe entnommen. Der Kumulus Komplex ist in diesem Stadium noch nicht expandiert. Die Kumulus-Eizell Komplexe werden nun für 20 - 24 Stunden mit Prostaglandin E2 (PGE2) (0,3 µM), Vehikel Kontrolle (Ethanol) oder Testsubstanzen inkubiert. Medium: alpha- MEM Medium mit 0,1 mM IBMX, Pyruvate (0,23 mM) Glutamine (2 mM), Pen/Strep 100 IU/ml Pen. und 100 µg/ml Strep.) und HSA (8 mg/ml)). Danach wird die Kumulus Expansion durch die Einteilung in vier Stadien (nach Vanderhyden et al. Dev Biol. 1990 Aug; 140(2):307-317) festgestellt. Tabelle 1: Beispiel für die biologische Wirksamkeit der erfindungsgemäßen Verbindungen (gemessen mittels cAMP Antagonismustest): […]

Experiment [2] has as its target T1, EP2-Subtyp des humanen PGE2-Rezeptors. As to the kind of experiment: cellular cAMP agonism test. The format is cell-based.

T1 sequence (P43116 whole entry): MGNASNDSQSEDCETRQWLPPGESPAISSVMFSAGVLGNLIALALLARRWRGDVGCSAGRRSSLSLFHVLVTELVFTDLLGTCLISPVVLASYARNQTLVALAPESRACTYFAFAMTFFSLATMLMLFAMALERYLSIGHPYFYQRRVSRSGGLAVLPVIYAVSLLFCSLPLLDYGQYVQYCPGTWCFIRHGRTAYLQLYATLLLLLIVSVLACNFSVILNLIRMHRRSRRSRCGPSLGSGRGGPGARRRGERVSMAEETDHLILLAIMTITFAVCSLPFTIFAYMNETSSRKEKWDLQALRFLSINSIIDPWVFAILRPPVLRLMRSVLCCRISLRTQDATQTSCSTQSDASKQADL

As to `Cc1[nH]c2c(F)ccc(C)c2c1CCNC(=O)C=Cc1ccncc1` (mixture of isomers) [Beispiel 2, (E/Z)-N-[2-(7-Fluor-2,4-dimethyl-1H-indol-3-yl)-ethyl]-3-pyridin-4-yl-acrylamid], in experiment [1], the IC50 was 1500 nM.

Turning to `CC(C)Oc1ccc2c(=O)c3cc(C(=O)O)ccc3oc2c1` [AH 6809, reference compound], the “Unterdrückung der Kumulus Expansion” value with Kumulus-Eizell Komplexe (100 - 200 µM) is listed as “ca. 30%”.

For the compound `Cc1[nH]c2c(F)ccc(C)c2c1CCNC(=O)/C=C/c1ccc2c(c1)OCO2` [Beispiel 1, (E)-3-Benzo[1,3]dioxol-5-yl-N-[2-(7-fluor-2,4-dimethyl-1H-indol-3-yl)-ethyl]-acrylamid], the “Unterdrückung der Kumulus Expansion” value in the experiment on Kumulus-Eizell Komplexe (at a 10-fold lower concentration than AH 6809 (100 - 200 µM)) was 61%.

On to `Cc1[nH]c2c(F)ccc(C)c2c1CCNC(=O)/C=C/c1ccc(OCCN(C)C)cc1` [Beispiel 18, (E)-3-[4-(2-Dimethylamino-ethoxy)-phenyl]-N-[2-(7-fluor-2,4-dimethyl-1H-indol-3-yl)-ethyl]-acrylamid], for which the IC50 in experiment [1] came to 2200 nM.

For `Cc1[nH]c2c(F)ccc(C)c2c1CCNC(=O)/C=C/c1cccc(S(N)(=O)=O)c1` [Beispiel 36, (E)-N-[2-(7-Fluor-2,4-dimethyl-1H-indol-3-yl)-ethyl]-3-(3-sulfamoyl-phenyl)-acrylamid], the “Wirkung im zellulären Agonismustest” value in experiment [2] is “keine Inhibition”. Moreover, the IC50 in experiment [1] was found to be 1000 nM.

With `Cc1[nH]c2c(F)ccc(C)c2c1CCNC(=O)/C=C/c1cncc2ccccc12` [Beispiel 47, (E)-N-[2-(7-Fluor-2,4-dimethyl-1H-indol-3-yl)-ethyl]-3-isochinolin-4-yl-acrylamid], the IC50 in experiment [1] was 1500 nM.

In general, IC50 refers to the point on the concentration scale where inhibition reaches its midpoint.

The values are drawn from EP2003118A1, “Cinnamic acid derivatives as modulators of EP2 receptors” (Bayer Schering Pharma Aktiengesellschaft, priority 2007, dated 2008).
